Results on seven compounds are retold here after patent publication US20110136898A1, “TREATMENT OF RETINAL DEGENERATION” (UNIVERSITY COLLEGE CORK, NATIONAL UNIVERSITY OF IRELAND, …, priority 2008, published 2011).

Entries after “also recorded” stand apart in the source; their conditions may differ.

Data set [1] can be described thus: Lipophilicity of BP derivatives. Format: physicochemical. Particulars: FIG. 4. The procedure: (§1) FIG. 4: Is a histogram of % protection afforded by a 25 μM concentration of each BP derivative BP1 to BP6 in photoreceptor cells as a function of the lipophilicity of each derivative. (P is a logarithmic value that indicates the lipophilicity of a compound).
Data set [2] concerns photoreceptor cells. Put plainly: Retinal explant culture, SNP induced apoptosis detected by TUNEL. Format: cell-based, C57BL/6 mice. Particulars: for Protection of photoreceptor cells from SNP induced apoptosis: retinal explants, TUNEL; for Protection of photoreceptor cells from SNP induced apoptosis / Protection of photoreceptor cells from SNP induced apoptosis at 25 μM: 300 μM SNP 24 h, 1 hour pre-treatment.

In data set [3] the test system is ganglion cells. In words: NMDA-induced excitotoxicity, acute model of Glaucoma. It is filed as in vivo, balb/c mice. The procedure:
In this model intravitreal injection of 40 mM NMDA results in the progressive loss of ganglion cells from the ganglion cell layer (GCL), accompanied by a thinning of the inner plexiform layer (IPL) over time.
By 48 and 72 hours post excitotoxicity the eventual loss of cells of the ONL is evident.
FIG. 13 is a histogram of the data from FIG. 12.
(§2) Apoptosis detection by Terminal deoxynucleotidyl transferase-mediated biotinylated UTP nick end labeling (TUNEL): Retinal explants were fixed in 10% neutral buffered formalin overnight at 4° C., followed by cryoprotection in 25% sucrose overnight at 4° C. Frozen sections (7 μm) were incubated with terminal deoxynucleotidyl transferase (MSC, Dublin, Republic of Ireland) and fluorescein-12-dUTP (Roche, Lewes, UK) according to manufacturers' instructions at 37° C. for 1 h. Sections were mounted and viewed under a fluorescence microscope (Leica DM LB2; Leica, Nussloch, Germany) using an FITC filter.
Hematoxylin staining: Eyes were fixed in 10% neutral buffered formalin overnight at 4° C., followed by cryoprotection in 25% sucrose overnight at 4° C. Frozen sections (7 μm) were stained in Hematoxylin (Sigma, Dublin, Ireland) for 10 seconds followed by a 15 minute water wash and 2-3 dips in acid alcohol. Following further washing, sections were placed in a 2% sodium bicarbonate (Sigma, Dublin, Ireland) solution for 30 seconds then dehydrated through an alcohol gradient. Sections were cleared in Histoclear (Sigma, Dublin, Ireland) for 5 minutes then mouted in DPX (BDH, VWR International Ltd., Poole, England) and viewed under a light microscope (Leica DM LB2; Leica, Nussloch, Germany).
Intravitreal Injections: Adult balb/c mice were anaesthetised using an intraperitoneal injection of ketamine hydrochloride 35-50 mg/kg (Pharmacia, Corby, Northamptonshire, UK) and xylazine hydrochloride 5-10 mg/kg (Chanelle Pharmaceuticals, Loughrea, Co. Galway, Ireland), and animals were placed in the pronate position. […]

A short description of data set [4]: Stability of BP derivatives. It is filed as physicochemical.
Data set [5] relates to photoreceptor cells. In words: rd10 chronic model of retinal degeneration. It is filed as in vivo, rd10 mouse. An excerpt:
In this model photoreceptor cells degenerate more slowly than the light model, over weeks rather than hours to days. Cell death is evident from postnatal day 18 (P18) and by P25 a significant loss of photoreceptor cell layers is observed. […] In this model, the central and peripheral retina degenerate at different rates. The loss of photoreceptors is greater in the central retina than the periphery between P18 and P25.
FIG. 10: The ONL comprises two types of cell; rod photoreceptors and cone photoreceptors. […] Rhodopsin is a protein specifically found in the outer segments (OS) of rod photoreceptors. […] Peanut agglutinin (PNA) is a lectin which binds to carbohydrates found in the outer membrane of cone photoreceptors but which are absent from rods.
Frozen sections (7 μm) were blocked with 0.1% bovine serum albumin (BSA) in 0.1% tween/PBS for 1 hour at room temperature. Sections were incubated with anti-rhodopsin antibody (LAB VISION Corporation, Fremont, Calif., USA) overnight at 4° C. Sections were washed and incubated with FITC conjugated secondary mouse antibody (Dako, Glostrup, Denmark) for 1 hour at room temperature. Following further washes, sections were mounted and viewed under a fluorescence microscope (Leica DM LB2; Leica, Nussloch, Germany) using a FITC filter.
Frozen sections (7 μm) were blocked with 0.1% bovine serum albumin (BSA) in 0.1% tween/PBS for 30 minutes at room temperature. Sections were incubated with rhodamine conjugated PNA (Invitrogen, Dun Laoghaire, Ireland) for 20 minutes at room temperature as per manufacturers' instructions. Sections were mounted and viewed under a fluorescence microscope (Leica DM LB2; Leica, Nussloch, Germany) using a TRITC filter.
Frozen sections (7 μm) were stained in Hematoxylin (Sigma, Dublin, Ireland) for 10 seconds followed by a 15 minute water wash and 2-3 dips in acid alcohol. Following further washing, sections were placed in a 2% sodium bicarbonate (Sigma, Dublin, Ireland) solution for 30 seconds then dehydrated through an alcohol gradient. Sections were cleared in Histoclear (Sigma, Dublin, Ireland) for 5 minutes then mouted in DPX (BDH, VWR International Ltd., Poole, England) and viewed under a light microscope (Leica DM LB2; Leica, Nussloch, Germany).
It is a better model of the slow progression of typical human autosomal recessive RP than the acute light model as photoreceptor cells are lost over a period of weeks rather than days. Loss of photoreceptors in the rd10 mouse begins at approximately 2 weeks of age, with the peak of photoreceptor death occurring at postnatal day (P) 25.

In data set [6] the test system is photoreceptor cells. In words: SNP challenge in photoreceptor cells, protection by BP derivatives. Format: cell-based. The procedure: FIG. 2: Is a histogram of results showing the effectiveness of a 25 μM concentration of each of the BP derivatives BP-1 to BP6 against increasing concentrations of SNP in photoreceptor cells. Error bars are +/−standard deviation-SD.
as §1

Data set [7] deals with photoreceptor cells. Put plainly: Light damage model in vivo, TUNEL. Also noted: species or system albino balb/c mice. Particulars: for Protection from light induced retinal damage (apoptosis of photoreceptors): 200 mg/kg IP, 1 hour pre-treatment, single injection. The procedure:
FIG. 7: In this figure the study was extended from ex vivo cultures to the light damage model in vivo. In this acute model of retinal disease albino balb/c mice are exposed to excessive white light causing the photoreceptor cells to die by apoptosis. […] The protection extends to 48 hours with only a single injection of BP3.
FIG. 8 is a histogram of the results from FIG. 7. TUNEL positive cells in three independent retinae were counted. Counts were performed on the central 40× field of the outer nuclear layer (ONL) and graphed with error bars (+/−standard deviation-SD).
as §2
Light damage model: Balb/c mice were dark adapted for 18 h prior to exposure to constant light. Mice were injected intraperitoneally with the Active 1 hour prior to light damage. Immediately prior to light exposure their pupils were dilated with 0.5% cyclopentolate under red light. Retinal light damage was induced by exposure to 2 h of cool white fluorescent light at an illumination of 5000 lux. Following exposure to constant light, animals were placed in the dark for 24 h then killed immediately by cervical dislocation. TUNEL staining was performed as described above.

Where [8] appears, read: 200 mg/kg 1 hour prior to 40 mM NMDA injection, 48 and 72 hours post insult.

`COc1cc2c(cc1OC(=O)c1ccccc1)CCC(C)(C)O2` [BP5]: the “Lipophilicity (P), rank order” value in data set [1] was “BP1<BP2<BP3=BP5=BP6<BP4”.
As to `COc1cc2c(cc1OC(C)=O)CCC(C)(C)O2` [BP1], the “Lipophilicity (P), rank order” value in data set [1] is “BP1<BP2<BP3=BP5=BP6<BP4”.
Same read-out and setting: the same measure for `COc1cc2c(cc1OC(=O)c1ccccc1F)CCC(C)(C)O2` [BP6]: “BP1<BP2<BP3=BP5=BP6<BP4”; for `COc1cc2c(cc1OC(=O)C(C)(C)C)CCC(C)(C)O2` [BP2]: “BP1<BP2<BP3=BP5=BP6<BP4”.
As for `C#CC1(O)CC[C@H]2[C@@H]3CCC4=CC(=O)CC[C@@H]4[C@H]3CC[C@@]21CC` (mixture of isomers) [norgestrel, reference compound], the “Protection of photoreceptor cells from SNP induced apoptosis” value in data set [2] is on record as “protected”.
With `COc1cc2c(cc1O)CCC(C)(C)O2` [BP, 3,4-dihydro-6-hydroxy-7-methoxy-2,2-dimethyl-1(2H)-benzopyran], the “Protection of photoreceptor cells from SNP induced apoptosis at 25 μM” value in data set [2] (FIGS. 5 and 6) is “effective”. In data set [2], the “Protection of photoreceptor cells from SNP induced apoptosis” value was “protect photoreceptor cells from SNP induced apoptosis”.
As for `CCCCC(C)C(=O)Oc1cc2c(cc1OC)OC(C)(C)CC2` (centres unmarked) [BP3], the “Lipophilicity (P), rank order” value in data set [1] is “BP1<BP2<BP3=BP5=BP6<BP4”. Besides, in data set [3] (setting [8]), the “Ganglion cell loss from the GCL” value is listed as “significantly attenuates”. Besides, the IPL thinning result in data set [3] (setting [8]) is on record as “significantly attenuates”. The “Protection from NMDA-induced cell death (TUNEL positive cells, all retinal layers)” value in data set [3] (200 mg/kg I.P. 1 hour prior to NMDA injection, 4, 24, 48 and 72 hours) is recorded as “significantly protects retinal cells in all layers at all time points examined; also recorded: significant protection”. Besides, the “Stability of the compound” value in data set [4] is given as “far more stable than BP4”. Also, the “Cone cells in the ONL (PNA staining)” value in data set [5] (alternate days from P18 to P25) is given as “more cone cells”. In addition, the “Rhodopsin positive cells (rods) in the ONL compared to vehicle” value in data set [5] (alternate days from P18 to P25, immunofluorescent staining) is “more rhodopsin positive cells remain”. For the same compound, in data set [5] (injected daily with 200 mg/kg, P18 to P25, 200 mg/kg), the “Protection from photoreceptor cell death in the ONL” value is on record as “protection from photoreceptor cell death in the ONL; also recorded: areas of the retina are protected”. In data set [5] (injection on alternate days, all retinal areas), the “Protection of retinal areas, alternate-day injection versus daily injection” value is reported as “same level of protection as a daily injection regimen”. Besides, the “Inhibition of apoptosis in retinal cells” value in data set [6] is “inhibiting apoptosis”. Also, the “Protection from light induced retinal damage (apoptosis of photoreceptors)” value in data set [7] was “protects from the retinal damage observed”; in data set [7] (listed as BP-3), “protected”. Moreover, the “Protection from light induced cell death in the central retina (TUNEL positive cells, ONL)” value in data set [7] (at 24, 48 and 72 hours, 200 mg/kg, FIG. 8) is “approx 40%”. Besides, the “Protection at 72 hours post light damage” value in data set [7] (second dose of 200 mg/kg at 24 hours post light damage) is “significant protection”. Besides, the “Time to which protection extends” value in data set [7] (single injection of 200 mg/kg, post light damage) was determined as 48 h. The “Protection of photoreceptor cells from SNP induced apoptosis at 25 μM” value in data set [2] (FIGS. 5 and 6) is recorded as “effective”. In data set [2] (SNP induced apoptosis, FIGS. 5 and 6), the “Concentration at which BP3 is equally as effective, times lower than BP” value is 10 times. For the same compound, the “Protection of photoreceptor cells from SNP induced apoptosis” value is given as “protect photoreceptor cells from SNP induced apoptosis” in data set [2] and “inhibiting apoptosis; also recorded: better protection” in data set [2] (listed as BP-3).
